Consider twelve compounds from patent US20210317490A1, “ANTICANCER COMPOUNDS” (priority 2017, published 2021).

One data set concerns A549. Description: SRB colorimetric cytotoxicity assay, A549. Format: cell-based, human. The conditions noted are these: A549, 72 hours treatment; for TGI: total cell growth inhibition; for GI50 / CC50: Homo sapiens; for GI50: 50% cell growth inhibition; for CC50: 50% net cell killing, read-out: LC50 (the source's name). An excerpt:
(§1) The aim of this assay is to evaluate the in vitro cytostatic (ability to delay or arrest tumor cell growth) or cytotoxic (ability to kill tumor cells) activity of the samples being tested.
(§2) A colorimetric assay, using sulforhodamine B (SRB) reaction has been adapted to provide a quantitative measurement of cell growth and viability (following the technique described by Skehan et al. J. Natl. Cancer Inst. 1990, 82, 1107-1112).
(§3) This form of assay employs 96-well cell culture microplates following the standards of the American National Standards Institute and the Society for Laboratory Automation and Screening (ANSI SLAS 1-2004 (R2012) 10/12/2011). All the cell lines used in this study were obtained from the American Type Culture Collection (ATCC) and derive from different types of human cancer.
(§4) Cells were maintained in Dulbecco's Modified Eagle Medium (DMEM) supplemented with 10% Fetal Bovine Serum (FBS), 2mM L-glutamine, 100 U/mL penicillin and 100 U/mL streptomycin at 37 ° C., 5% CO2 and 98% humidity. For the experiments, cells were harvested from subconfluent cultures using trypsinization and resuspended in fresh medium before counting and plating.
(§5) Cells were seeded in 96 well microtiter plates, at 5000 cells per well in aliquots of 150 μL and allowed to attach to the plate surface for 18 hours (overnight) in drug free medium. After that, one control (untreated) plate of each cell line was fixed (as described below) and used for time zero reference value. Culture plates were then treated with test compounds (50 μL aliquots of 4× stock solutions in complete culture medium plus 4% DMSO) using ten 2/5 serial dilutions (concentrations ranging from 10 to 0.003 μg/mL) and triplicate cultures (1% final concentration in DMSO). After 72 hours treatment, the antitumor effect was measured by using the SRB methodology: Briefly, cells were washed twice with PBS, fixed for 15 min in 1% glutaraldehyde solution at room temperature, rinsed twice in PBS, and stained in 0.4% SRB solution for 30 min at room temperature. Cells were then rinsed several times with 1% acetic acid solution and air-dried at room temperature. SRB was then extracted in 10 mM trizma base solution and the absorbance measured in an automated spectrophotometric plate reader at 490 nm. Effects on cell growth and survival were estimated by applying the NCI algorithm (Boyd M R and Paull K D. Drug Dev. Res. 1995, 34, 91-104).
(§6) The values obtained in triplicate cultures were fitted to a four-parameter logistic curve by nonlinear regression analysis. Three reference parameters were calculated (according to the NCI algorithm) by automatic interpolation of the curves obtained from such fitting: GI50=compound concentration that produces 50% cell growth inhibition, as compared to control cultures; TGI=total cell growth inhibition (cytostatic effect), as compared to control cultures, and LC50=compound concentration that produces 50% net cell killing cytotoxic effect).

In the next data set the test system is HT29. Description: SRB colorimetric cytotoxicity assay, HT29. Format: cell-based, human. Conditions: for TGI: HT29, 72 hours treatment, total cell growth inhibition; for GI50 / CC50: Homo sapiens, HT-29, HT29, 72 hours treatment; for GI50: 50% cell growth inhibition; for CC50: 50% net cell killing, read-out: LC50 (the source's name).
Excerpt: as §1, §2, §3, §4, §5, §6

For a further data set, the system named is MDA-MB-231. Description: SRB colorimetric cytotoxicity assay, MDA-MB-231. Format: cell-based, human. Conditions: MDA-MB-231, 72 hours treatment; for GI50 / LC50 (concentration giving 50% net cell killing): Homo sapiens; for GI50: 50% cell growth inhibition; for TGI: total cell growth inhibition.
Excerpt: as §1, §2, §3, §4, §5, §6

The next data set deals with PSN-1. Description: SRB colorimetric cytotoxicity assay, PSN1. Format: cell-based, human. The conditions noted are these: for GI50 / CC50: Homo sapiens, PSN1, PSN-1, 72 hours treatment; for GI50: 50% cell growth inhibition; for CC50: 50% net cell killing, read-out: LC50 (the source's name); for TGI: PSN-1, 72 hours treatment, total cell growth inhibition.
Excerpt: as §1, §2, §3, §4, §5, §6

Data set [1] concerns P-388 murine leukemia cell line. Conditions: cited from earlier work; for IC50 against the P-388 murine leukemia cell line: mycalamides, J. Nat. Prod. 2000, 63, 704.
For data set [2] the following is noted: toxicity lower than pederin; cited from earlier work.
Another data set deals with B104 cells. Conditions: cited from earlier work.
Another data set has as its system HeLa cells. The conditions noted are these: cited from earlier work.
The test system of data set [3] is EUE, E6D, HeLa, KB, Hep, AS, MEF, CE, BHK, Z1 and M1 cell lines. The conditions noted are these: within four days, in all the cell lines analyzed; cited from earlier work.

Converted amounts (≈) assume the structure as drawn.

The TGI is the concentration at which net growth stops. A higher TGI goes with less potent growth arrest. As a reminder, the GI50 is the concentration that inhibits growth by half. Lower therefore signals greater sensitivity of the cells. A word on the IC50: it is the concentration that inhibits the measured activity by half.

With `C=C1CC(OC)(C(O)C(=O)NC(OC)C2CC(O)C(C)(C)C(CC(CO)OC)O2)OC(C)C1C` (stereo not shown) [Compound 1], the TGI came out at 7.97 nM with A549, 8.99 nM with HT29, 5.31 nM in the data set with MDA-MB-231 and 5.72 nM with PSN-1. In addition, the GI50 amounted to 2.04 nM with A549, 2.86 nM in the data set on HT29, 2.66 nM in the data set on MDA-MB-231 and 2.66 nM in the data set with PSN-1. Moreover, the CC50 was 36.8 nM in the data set with A549, above 204 nM in the data set on HT29 and 19.4 nM in the data set with PSN-1. In the data set on MDA-MB-231, this compound displayed an LC50 (concentration giving 50% net cell killing) of 10.8 nM.
For `C=C1CC(OC)(C(O)C(=O)NC(OC)C2CC(O)C(C)(C)C(CC(O)CO)O2)OC(C)C1C` (stereo not shown) [Compound 2], in the data set with A549, the TGI was determined as 25.2 nM, growth was halved (GI50) at 7.15 nM and the CC50 came out at 122 nM. Also, in the data set on HT29, the TGI came out at 44.2 nM, the GI50 was determined as 8.83 nM and the CC50 was above 2100 nM. In the data set on MDA-MB-231, this compound had a GI50 of 8.2 nM, an LC50 (concentration giving 50% net cell killing) of 31.5 nM and a TGI of 15.6 nM. In addition, in the data set on PSN-1, halving of growth (GI50) required 8.62 nM, the CC50 was found to be 77.8 nM and the TGI was 19.1 nM.
For `C=C1CC(OC)(C(OC(C)=O)C(=O)NC(OC)C2CC(OC(C)=O)C(C)(C)C(CC(COC(C)=O)OC)O2)OC(C)C1C` (stereo not shown) [Compound 3], in the data set with A549, the TGI is 877 nM, the GI50 is 115 nM and the CC50 was determined as 8610 nM. Besides, in the data set on HT29, the TGI worked out at 926 nM, the GI50 came out at 162 nM and the CC50 is above 16200 nM. In the data set with MDA-MB-231, this compound returned a GI50 of 309 nM, an LC50 (concentration giving 50% net cell killing) above 16200 nM and a TGI of 2440 nM. Moreover, in the data set on PSN-1, growth was halved (GI50) at 162 nM, the CC50 came out at 3900 nM and the TGI came out at 666 nM.
On to `C=C1C[C@](OC)([C@H](O)C(=O)N[C@H]2OCO[C@H]3[C@@H]2O[C@H](C[C@H](O)CO)C(C)(C)[C@@H]3OC)O[C@H](C)[C@@H]1C` [Mycalamide A], for which, in data set [1], the “IC50 against the P-388 murine leukemia cell line” value is 3.0 ng/mL (≈ 5.96 nM).
Consider `C=C1C[C@](OC)([C@H](O)C(=O)N[C@H]2OCO[C@H]3[C@@H]2O[C@H](CC(CO)OC)C(C)(C)[C@@H]3OC)O[C@H](C)[C@@H]1C` (stereo partly shown) [Mycalamide B], for which the “IC50 against the P-388 murine leukemia cell line” value in data set [1] is given as 0.7 ng/mL (≈ 1.35 nM).
On to `C=C1C[C@](OC)([C@H](O)C(=O)NC[C@H]2O[C@H](CO)C(C)(C)[C@H](O)[C@H]2O)O[C@H](C)[C@@H]1C` [Mycalamide C], for which the “IC50 against the P-388 murine leukemia cell line” value in data set [1] is on record as 95.0 ng/mL (≈ 228 nM).
Regarding `C=C1C[C@](OC)([C@H](O)C(=O)N[C@H]2OCO[C@H]3[C@@H]2O[C@H](C[C@H](O)CO)C(C)(C)[C@@H]3O)O[C@H](C)[C@@H]1C` [Mycalamide D], the “IC50 against the P-388 murine leukemia cell line” value in data set [1] is recorded as 35 ng/mL (≈ 71.5 nM).
Consider `C=C1C[C@](OC)([C@H](O)C(=O)N[C@H]2OCO[C@H]3[C@@H]2O[C@H](C[C@H](O)CCC/C=C/C=C/C=C/C(=O)N[C@@H](CCCNC(=N)N)C(=O)O)C(C)(C)[C@@H]3OC)O[C@H](C)[C@@H]1C` [Onnamide A], for which the “IC50 against the murine P388 cell line” value in data set [1] (U.S. Pat. No. 4,801,606) is reported as 1 ng/mL (≈ 1.26 nM).
As for `C=C1C[C@](OC)([C@H](O)C(=O)NC[C@@H]2C[C@H](O)C(C)(C)[C@@H](C[C@H](O)CCC/C=C/C=C/C=C/C(=O)N[C@@H](CCCNC(=N)N)C(=O)O)O2)O[C@H](C)[C@@H]1C` [Onnamide E], in data set [1] (at a concentration of 0.4 μg/mL), the “cytotoxic activity against the P388 cell line” value is “did not show cytotoxic activity”.
Regarding `C=C1C[C@](O)([C@H](O)C(=O)N[C@@H](OC)[C@@H]2C[C@@H](O)C(C)(C)[C@@H](C[C@@H](COC)OC)O2)O[C@H](C)[C@@H]1C` [Pseudopederin, pseudopederin], the “active dose relative to pederin” value in data set [2] is given as 10 times higher.
For `C=C1C[C@](OC)([C@H](O)C(=O)N[C@@H](O)[C@@H]2C[C@@H](O)C(C)(C)[C@@H](C[C@H](O)CO)O2)O[C@H](C)[C@@H]1C` [diaphorin], the IC50 is around 1000 nM in the data set on B104 cells and around 2000 nM in the data set on HeLa cells.
As for `C=C1C[C@](OC)([C@H](O)C(=O)N[C@@H](OC)[C@@H]2C[C@@H](O)C(C)(C)[C@@H](CC(COC)OC)O2)O[C@H](C)[C@@H]1C` (stereo partly shown) [pederin], the “concentration sufficient to cause cellular death” value in data set [3] is listed as around 3 nM.
